According to ChEMBL document CHEMBL3044718, “Effect of phenolic compounds on growth and ligninolytic enzyme production in Botryosphaeria isolates” (2013):
≈ marks a conversion by molar mass, not a printed value. Calls of active or inactive are those of the source. The rule behind the calls is not given here.

Columns and labels:
Neofusicoccum ribis [1] = assay: Decrease in Neofusicoccum ribis ligninolytic enzyme production assessed as pectinase activity using pectin as substrate measured at 28 degC after 4 days; assay type: functional, organism-based
Lasiodiplodia theobromae [2] = assay: Decrease in Lasiodiplodia theobromae ligninolytic enzyme production assessed as pectinase activity using pectin as substrate at 25 mM measured at 28 degC after 4 days; assay type: functional; details: 96 h
Botryosphaeria dothidea [3] = assay: Decrease in Botryosphaeria dothidea ligninolytic enzyme production assessed as laccase activity using ABTS as substrate at 25 mM measured at 28 degC after 4 days; assay type: functional; details: 96 h
Neofusicoccum ribis [4] = assay: Inhibition of Neofusicoccum ribis mycelium growth at 20 mM measured at 28 degC after 4 days; assay type: functional, organism-based
Lasiodiplodia theobromae [5] = assay: Inhibition of Lasiodiplodia theobromae mycelium growth at 20 mM measured at 28 degC after 4 days; assay type: functional; details: 96 h, read-out: GI
Neofusicoccum ribis [6] = assay: Decrease in Neofusicoccum ribis mycelium biomass production at 25 mM measured at 28 degC after 4 days by gravimetric analysis; assay type: functional; details: 96 h
Lasiodiplodia theobromae [7] = assay: Decrease in Lasiodiplodia theobromae ligninolytic enzyme production assessed as laccase activity using ABTS as substrate at 1 mM measured at 28 degC after 4 days; assay type: functional; details: 96 h
Neofusicoccum ribis [8] = assay: Inhibition of Neofusicoccum ribis mycelium growth measured at 28 degC after 4 days; assay type: functional
Diplodia seriata [9] = assay: Decrease in Diplodia seriata (Schwein.) Shoemaker ligninolytic enzyme production assessed as pectinase activity using pectin as substrate at 1 mM measured at 28 degC after 4 days; assay type: functional, organism-based
Diplodia seriata [10] = assay: Inhibition of Diplodia seriata (Schwein.) Shoemaker mycelium growth at 10 mM measured at 28 degC after 4 days; assay type: functional, organism-based
Botryosphaeria dothidea [11] = assay: Inhibition of Botryosphaeria dothidea mycelium growth measured at 28 degC after 4 days; assay type: functional
Diplodia seriata [12] = assay: Inhibition of Diplodia seriata (Schwein.) Shoemaker mycelium growth measured at 28 degC after 4 days; assay type: functional
Phellinus tremulae = assay: Inhibition of Phellinus tremulae mycelium growth; assay type: functional
Botryosphaeria dothidea [13] = assay: Decrease in Botryosphaeria dothidea ligninolytic enzyme production assessed as pectinase activity using pectin as substrate at 1 mM measured at 28 degC after 4 days; assay type: functional, organism-based
Lasiodiplodia theobromae [14] = assay: Inhibition of Lasiodiplodia theobromae mycelium growth measured at 28 degC after 4 days; assay type: functional
Botryosphaeria dothidea [15] = assay: Inhibition of Botryosphaeria dothidea mycelium growth at 10 mM measured at 28 degC after 4 days; assay type: functional, organism-based
Diplodia seriata [16] = assay: Decrease in Diplodia seriata (Schwein.) Shoemaker mycelium biomass production measured at 28 degC after 4 days by gravimetric analysis; assay type: functional
Lasiodiplodia theobromae [17] = assay: Decrease in Lasiodiplodia theobromae mycelium biomass production measured at 28 degC after 4 days by gravimetric analysis; assay type: functional
Neofusicoccum ribis [18] = assay: Inhibition of Neofusicoccum ribis mycelium growth at 25 mM measured at 28 degC after 4 days; assay type: functional; details: 96 h, read-out: GI
Botryosphaeria dothidea [19] = assay: Inhibition of Botryosphaeria dothidea mycelium growth at 25 mM measured at 28 degC after 4 days; assay type: functional; details: 96 h, read-out: GI
Lasiodiplodia theobromae [20] = assay: Inhibition of Lasiodiplodia theobromae mycelium growth at 25 mM measured at 28 degC after 4 days; assay type: functional; details: 96 h, read-out: GI
Botryosphaeria dothidea [21] = assay: Decrease in Botryosphaeria dothidea ligninolytic enzyme production assessed as laccase activity using ABTS as substrate measured at 28 degC after 4 days; assay type: functional, organism-based
Botryosphaeria dothidea [22] = assay: Decrease in Botryosphaeria dothidea ligninolytic enzyme production assessed as laccase activity using ABTS as substrate at 5 mM measured at 28 degC after 4 days; assay type: functional
Diplodia seriata [23] = assay: Inhibition of Diplodia seriata (Schwein.) Shoemaker mycelium growth at 25 mM measured at 28 degC after 4 days; assay type: functional; details: 96 h, read-out: GI
Neofusicoccum ribis [24] = assay: Decrease in Neofusicoccum ribis ligninolytic enzyme production assessed as laccase activity using ABTS as substrate at 1 mM measured at 28 degC after 4 days; assay type: functional; details: 96 h
Botryosphaeria dothidea [25] = assay: Decrease in Botryosphaeria dothidea ligninolytic enzyme production assessed as laccase activity using ABTS as substrate at 1 mM measured at 28 degC after 4 days; assay type: functional
Diplodia seriata [26] = assay: Decrease in Diplodia seriata (Schwein.) Shoemaker ligninolytic enzyme production assessed as laccase activity using ABTS as substrate at 1 mM measured at 28 degC after 4 days; assay type: functional; details: 96 h
Neofusicoccum ribis [27] = assay: Inhibition of Neofusicoccum ribis mycelium growth at 15 mM measured at 28 degC after 4 days; assay type: functional, organism-based
Diplodia seriata [28] = assay: Inhibition of Diplodia seriata (Schwein.) Shoemaker mycelium growth at 15 mM measured at 28 degC after 4 days; assay type: functional, organism-based
Botryosphaeria dothidea [29] = assay: Inhibition of Botryosphaeria dothidea mycelium growth at 20 mM measured at 28 degC after 4 days; assay type: functional, organism-based
Lasiodiplodia theobromae [30] = assay: Inhibition of Lasiodiplodia theobromae mycelium growth at 15 mM measured at 28 degC after 4 days; assay type: functional; details: 96 h, read-out: GI
Botryosphaeria dothidea [31] = assay: Decrease in Botryosphaeria dothidea ligninolytic enzyme production assessed as laccase activity using ABTS as substrate at 15 mM measured at 28 degC after 4 days; assay type: functional, organism-based
Diplodia seriata [32] = assay: Decrease in Diplodia seriata (Schwein.) Shoemaker ligninolytic enzyme production assessed as pectinase activity using pectin as substrate at 15 mM measured at 28 degC after 4 days; assay type: functional, organism-based

| SMILES | inhibition (Neofusicoccum ribis [1]) | inhibition at 25000 µM (Lasiodiplodia theobromae [2]) [%] | growth inhibition (GI) (Neofusicoccum ribis [4]) | inhibition at 25000 µM (Neofusicoccum ribis [6]) [%] | inhibition at 1000 µM (Lasiodiplodia theobromae [7]) [%] | MIC (Neofusicoccum ribis [8]; 96 h) [mM] | MIC (Botryosphaeria dothidea [11]; 96 h) [mM] | MIC (Diplodia seriata [12]; 96 h) [mM] | inhibition (Botryosphaeria dothidea [13]) | MIC (Lasiodiplodia theobromae [14]; 96 h) [mM] | inhibition (INH) (Diplodia seriata [16]) [%] | inhibition of growth at 25000 µM (Neofusicoccum ribis [18]) [%] | inhibition of growth at 25000 µM (Lasiodiplodia theobromae [20]) [%] | inhibition (Botryosphaeria dothidea [21]) | inhibition (INH) (Lasiodiplodia theobromae [17]) [%] | growth inhibition (GI) (Diplodia seriata [28]) | other results |
| --- | --- | --- | --- | --- | --- | --- | --- | --- | --- | --- | --- | --- | --- | --- | --- | --- | --- |
| O=C(O)c1ccccc1 [BENZOIC ACID] | inactive | 57 | Active | 50 | 58 | 5 (≈ 611 µg/mL) | 5 (≈ 611 µg/mL) | 5 (≈ 611 µg/mL) | inactive | 5 (≈ 611 µg/mL) |  |  |  |  |  |  | inhibition at 25000 µM (Botryosphaeria dothidea [3]): 96%; inhibition of growth at 20000 µM (Lasiodiplodia theobromae [5]): 100%; inhibition (Diplodia seriata [9]): Active; growth inhibition (GI) (Diplodia seriata [10]): Active; MIC (Phellinus tremulae): 800 µg/mL (≈ 6.55 mM); growth inhibition (GI) (Botryosphaeria dothidea [15]): Active |
| COc1cc(C(=O)O)cc(OC)c1O [SYRINGIC ACID] | inactive | 57 |  |  | 58 |  |  |  | inactive |  |  |  |  |  |  |  | inhibition (Diplodia seriata [16]): inactive; MIC (Neofusicoccum ribis [8]): inactive; inhibition (Diplodia seriata [9]): Active; MIC (Botryosphaeria dothidea [11]): inactive; MIC (Diplodia seriata [12]): inactive; inhibition (Lasiodiplodia theobromae [17]): inactive; MIC (Lasiodiplodia theobromae [14]): inactive |
| COc1cccc(OC)c1C(=O)O [2,6-DIMETHOXYBENZOIC ACID] | inactive | 57 |  | 50 | 58 | 5 (≈ 911 µg/mL) | 5 (≈ 911 µg/mL) | 5 (≈ 911 µg/mL) | inactive | 5 (≈ 911 µg/mL) | 58 | 86 | 62 | Active | 58 |  | inhibition of growth at 25000 µM (Botryosphaeria dothidea [19]): 95%; inhibition (Botryosphaeria dothidea [22]): inactive; inhibition of growth at 25000 µM (Diplodia seriata [23]): 95% |
| O=C(O)/C=C/c1ccc(O)cc1 [COUMARIC ACID] | inactive | 57 |  |  | 71 | 5 (≈ 821 µg/mL) | 5 (≈ 821 µg/mL) | 5 (≈ 821 µg/mL) | inactive | 5 (≈ 821 µg/mL) | 58 | 81 | 100 | Active | 58 |  | inhibition at 1000 µM (Neofusicoccum ribis [24]): 71%; growth inhibition (GI) (Diplodia seriata [10]): Active; inhibition at 1000 µM (Botryosphaeria dothidea [25]; 96 h): 71%; inhibition at 1000 µM (Diplodia seriata [26]): 71%; growth inhibition (GI) (Botryosphaeria dothidea [15]): Active |
| COc1cccc(OC)c1O [SYRINGOL] | inactive | 57 |  | 50 | 58 | 5 (≈ 771 µg/mL) | 5 (≈ 771 µg/mL) | 5 (≈ 771 µg/mL) | inactive | 5 (≈ 771 µg/mL) | 58 |  |  | Active | 58 | Active | growth inhibition (GI) (Neofusicoccum ribis [27]): Active; growth inhibition (GI) (Botryosphaeria dothidea [29]): Active; inhibition of growth at 15000 µM (Lasiodiplodia theobromae [30]): 100% |
| COc1cc(C(=O)O)ccc1O [VANILLIC ACID] | inactive | 57 |  | 50 | 58 | 5 (≈ 841 µg/mL) | 5 (≈ 841 µg/mL) | 5 (≈ 841 µg/mL) | inactive | 5 (≈ 841 µg/mL) | 58 | 83 | 52 | Active | 58 | Active | inhibition of growth at 25000 µM (Botryosphaeria dothidea [19]): 93%; inhibition (Botryosphaeria dothidea [31]): Active; inhibition (Botryosphaeria dothidea [22]): inactive |
| O=C(O)c1ccccc1O [SALICYLIC ACID] | inactive | 57 | Active | 50 | 58 | 5 (≈ 691 µg/mL) | 5 (≈ 691 µg/mL) | 5 (≈ 691 µg/mL) | inactive | 5 (≈ 691 µg/mL) | 58 |  | 100 | Active | 58 | Active | inhibition (Botryosphaeria dothidea [31]): Active |
| COc1ccccc1O [GUAIACOL] | inactive | 57 | Active |  | 58 | 5 (≈ 621 µg/mL) | 5 (≈ 621 µg/mL) | 5 (≈ 621 µg/mL) |  | 5 (≈ 621 µg/mL) | 58 |  |  | Active | 58 | Active | inhibition (Diplodia seriata [32]): Active; inhibition (Botryosphaeria dothidea [25]): inactive; inhibition of growth at 15000 µM (Lasiodiplodia theobromae [30]): 100% |
| Oc1ccccc1O [CATECHOL] | inactive | 57 | Active | 100 | 58 | 5 (≈ 551 µg/mL) | 5 (≈ 551 µg/mL) | 5 (≈ 551 µg/mL) | inactive | 5 (≈ 551 µg/mL) | 58 |  |  |  | 58 | Active | inhibition of growth at 20000 µM (Lasiodiplodia theobromae [5]): 100%; growth inhibition (GI) (Botryosphaeria dothidea [29]): Active |
| COc1cc(/C=C/C(=O)O)ccc1O [FERULATE] | inactive | 57 |  |  | 82 | 5 (≈ 971 µg/mL) | 5 (≈ 971 µg/mL) | 5 (≈ 971 µg/mL) | inactive | 5 (≈ 971 µg/mL) | 58 | 74 | 81 | Active | 58 | Active | inhibition at 1000 µM (Neofusicoccum ribis [24]): 82%; inhibition at 5000 µM (Botryosphaeria dothidea [22]; 96 h): 90% |
